Experimental data as given in patent US8367316B2, “Human gastrointestinal stem cell-derived primary intestinal epithelial cell system and methods of use thereof” (AlfaGene Bioscience, Inc., priority 2009, dated 2013).

B1: IL-1α: pro-inflammatory cytokine (protein, UniProt P01583 113-271, looked up)
Interleukin-1 alpha: SAPFSFLSNVKYNFMRIIKYEFILNDALNQSIIRANDQYLTAAALHNLDEAVKFDMGAYKSSKDDAKITVILRISKTQLYVTAQDEDQPVLLKEMPEIPKTITGSETNLLFFWETHGTKNYFTSVAHPNLFIATKQDYWVCLAGGPPSITDFQILENQA

How the values were obtained:
Type in all cases: cell-based, human
HIPEC monolayers = test: Inulin permeability of HIPEC monolayers grown on TransWell filters, with or without pro-inflammatory cytokines; conditions: cytokine treatment 24 hrs, 3H-labeled Inulin, +/- standard error
Procedure: Intestinal stem cell derived primary epithelial cell mono layers were tested for Inulin permeability.
Confluent monolayers of HIPEC cells were grown on transwell membranes in triplicates. Cells were then treated with or without pro-inflammatory cytokines for 24 hrs. ^3H-labeled Inulin was added to the upper chamber. Aliquots of medium retrieved from the upper and lower chambers were counted.
The % amount of inulin activity transported from the upper to the lower chamber was determined. The results are shown in Table 5 below, along with the standard error.

HIPEC line A2J1 = test: qPCR of markers for mature phenotype cells in HIPEC line upon cytokine stimulation; conditions: 1 ng/ml IL-1b or 25 ng/ml TNFα (24 hrs)
Procedure: Using qPCR, the HIPEC line was also tested for various markers for mature phenotype cells, including the following cell subtypes: enteroendocrine; Goblet; Paneth; and enterocyte. The following markers were used, with the corresponding cell subtypes in parentheses: Somatostatin (enteroendocrine); Glucagon (enteroendocrine); Lysozyme (Goblet/Paneth); Defensin 5 (Goblet/Paneth); Trefoil factor 3 (Goblet/Paneth); Mucin 2 (Goblet/Paneth); Sucrose isomaltase (enterocyte); Carbonic anhydrase (enterocyte); Cd×2 promoter (enterocyte); and Guanylate cyclase c (enterocyte). Data from these tests supported a Goblet/secretory differentiation profile for the HIPEC line identified as A2J1 (derived from jejunem tissue).

HIPEC line (A2J1) = test: Response to inflammatory mediators, IL-8 read-out; conditions: stimulators at various concentrations
Procedure: Using both IL-8 and MIP-3α read-out procedures, an HIPEC line of the present invention (A2J1) was tested for response to various inflammatory mediators (stimulators). The HIPEC line was compared to a Caco-2 cell line. The following stimulators were used at various concentrations: IL-1β; TNFα; IFNγ; Pam3CSK4 (TLR2); LPS (TLR4); and Flagellin (TLR5).

TLR2 = test: Regulation of TLR expression by LPS on hGISC-derived primary epithelial cell line (FIG. 18); conditions: LPS stimulation of HIPEC line, preliminary experiment
TLR4 = test: as above; conditions: LPS stimulation of HIPEC line, preliminary experiment
TLR6 = test: as above; conditions: LPS stimulation of HIPEC line, preliminary experiment
[1] = tested on: hGISC derived primary ECs; test: Nitric oxide production after immunostimulation, Griess reaction assay; conditions: agent alone; LPS (1 μm/ml), IFN-γ (200 u/ml); 24 hours; culture supernatants
From the text: (§1) Therefore, to gain insight about NO production regulation by intestinal EC, the effects of innate (LPS) and adaptive (IFN-γ) immunostimulatory agents on embodiments of the hGISC cell system derived non-transformed primary epithelial cells (EC) were studied and compared to a colonic adenocarcinoma EC line HT29.
[…] Cell free culture supernatants were collected and analyzed for NO content using a Griess Reaction kit (e.g., Griess Reagent System, Part #TB229) (PROMEGA, Madison, Wis.) in accordance with the manufacturer's instructions.
(§2) In another assay for NO, a macrophage cell line MHS served as a positive control. Cells were cultured with/without LPS (1 μm/ml), IFN-γ (200 u/ml), or in combination for 24 hours. Culture supernatants were analyzed for NO content by Griess reaction assay (as mentioned herein).

HT29 cells = test: as above; conditions: agent alone; LPS (1 μm/ml), IFN-γ (200 u/ml); 24 hours; culture supernatants
Procedure: as §1, §2

[2] = Experiment #1, Medium Only 35.5% +/− 5.3
[3] = Experiment #2, Medium Only 41.6% +/− 0.96
[4] = Experiment #3, Medium Only 43.6% +/− 1.16

Molecule | % amount of inulin activity transported from the upper to the lower chamber (HIPEC monolayers; [2]) | % amount of inulin activity transported from the upper to the lower chamber (HIPEC monolayers; [3]) | % amount of inulin activity transported from the upper to the lower chamber (HIPEC monolayers; [4]) | change in phenotype upon stimulation (HIPEC line A2J1) | IL-8 response (HIPEC line (A2J1)) | TLR2 expression (TLR2) | TLR4 expression (TLR4) | TLR6 expression (TLR6) | NO production [1] | NO production (HT29 cells)
IL-1β: pro-inflammatory cytokine; interleukin | 43.5% +/− 1.36 | 50.4% +/− 0.94 | 54.0% +/− 1.59 | no change in phenotype | responsive | – | – | – | – | –
IL-6: pro-inflammatory cytokine | 36.5% +/− 0.48 | 41.8% +/− 0.59 | – | – | – | – | – | – | – | –
lipopolysaccharide [LPS] | – | – | – | – | – | upregulated | upregulated | upregulated | neither LPS nor IFN-γ alone affect NO production | neither LPS nor IFN-γ alone affect NO production
IFN-γ: interferon; adaptive immunostimulatory agent | 36.0% +/− 2.8 | 42.6% +/− 2.07 | 42.7% +/− 0.30 | – | responsive | – | – | – | neither LPS nor IFN-γ alone affect NO production | neither LPS nor IFN-γ alone affect NO production
tumor necrosis factor alpha [TNF-α] | 41.2% +/− 0.66 | 46.6% +/− 1.05 | 49.0% +/− 1.95 | no change in phenotype | responsive | – | – | – | – | –
B1 | 40.0% +/− 3.6 | 47.4% +/− 0.59 | 50.7% +/− 0.40 | – | – | – | – | – | – | –
